Data reported in PMC3596083 (Beilstein Journal of Organic Chemistry, 2013).
“And” between values parts separate entries of the source, which are not always exact repeats. Identical values can stand only once. “Also recorded” adds a separate entry of the source. Like-named read-outs stand apart in the source and are kept apart here.

What was measured:
[1] = target: T1, GABAA-receptors (α1-GFP + β2 + γ2Long) expressed in CHO cells (Homo sapiens, UniProt P14867+P47870); assay: Whole-cell patch-clamp recordings with fast perfusion on CHO cells transiently expressing GABAA-receptors; assay type: cell-based; details: for changes in the current: application of 10 mM
T1 construct: expressed in transfected cells; host or cells: CHO-K1 (ATCC), transient transfection with Lipofectamine 2000
Method: (§1) The investigations in this study were performed by using a standard ^36Cl^−-flux assay in mouse brain synaptoneurosomes. […] Moreover, ^36Cl^−-flux assays were carried out by using a 15 s incubation time. […] The activity of synthesized compounds was tested by using CHO cells transiently expressing GABAA-receptors in the configuration (α1-GFP + β2 + γ2Long). To analyze the functional properties of the compounds, we performed monitoring of ionic currents using whole-cell patch-clamp techniques. […] Then we applied different concentrations of the studied compounds and estimated the minimal concentration that induced currents and, if possible, their EC50.
Cell culture and transient transfection
Chinese Hamster Ovary (CHO-K1) cells were obtained from the American Type Culture Collection (ATCC, Molsheim, France) and maintained as previously described. One day before the transfection, cells were plated on the coverslips (12–14 mm in diameter), which were placed inside 35 mm cell culture dishes with 2 mL of medium. CHO cells were transfected with a total 3 µg cDNA of α1-GFP + β2 + γ2Long (ratio 1:1:1) using the Lipofectamine 2000 transfection protocol (Life Technology, USA). Three hours after the initial exposure of the cells to the cDNAs, a fresh […] solution replaced the old one.
Electrophysiological recordings were performed from fluorescent cells 48–72 hours after […]
Electrophysiological recordings
Whole-cell recordings were conducted on CHO-K1 cells at room temperature (20–25 °C) using an EPC-9 amplifier (HEKA Elektronik, Germany). Cells were continuously superfused with external solution containing (mM): NaCl 140, CaCl2 2, KCl 2.8, MgCl2 1, HEPES 20, glucose 10; pH 7.3; 320–330 mOsm. The patch pipette solution contained (mM): CsCl 140, MgCl2 2, MgATP 2, NaGTP 0.4, HEPES/CsOH 10, BAPTA/KOH 20; pH 7.3; 290 mOsm.
Pipettes were pulled from borosilicate glass capillaries (Harvard Apparatus Ltd, USA) and had resistances of 5–8 MΩ.
For rapid replacement of solutions, a system of two parallel rectangular tubes, 100 µm in diameter, located at a distance of 40–50 µm from the tested cell, was used. The movement of tubes was controlled by a computer-driven fast exchange system (SF 77A Perfusion Fast-Step, Warner, USA). As measured by open tip electrode controls (1/10 NaCl), in this system a 20–80% solution exchange time was within 2–3 ms. Cells with a low input resistance (<150 MΩ) were excluded from analysis.
For quantitative estimations of agonist action, dose-response relationships were fitted by the […]
I = Imax / (1 + (EC50/ [C])n) where I is the current amplitude induced by the agonist at concentration [C], Imax is the maximum response of the cell, n is the Hill coefficient and EC50 is the concentration for which a half-maximum response is induced. Concentration-response relationships were constructed using at least four points. […]

GABAA-receptors [2] = tested on: GABAA-receptors; design: method as in PMID 12113824; details: cited from earlier work; for agonist character on GABAA-channels: chloride-flux assays on synaptoneurosomes
GABAA-receptors [3] = assay: Standard 36Cl−-flux assay in mouse brain synaptoneurosomes (Carlier et al.); assay type: cell-based; details: ratio of the EC50 values of ref 13
Method: as §1

[4] = whole-cell currents, mean ± error over x tested cells, read-out: EC50, mean

T1 sequence (P14867 28-456): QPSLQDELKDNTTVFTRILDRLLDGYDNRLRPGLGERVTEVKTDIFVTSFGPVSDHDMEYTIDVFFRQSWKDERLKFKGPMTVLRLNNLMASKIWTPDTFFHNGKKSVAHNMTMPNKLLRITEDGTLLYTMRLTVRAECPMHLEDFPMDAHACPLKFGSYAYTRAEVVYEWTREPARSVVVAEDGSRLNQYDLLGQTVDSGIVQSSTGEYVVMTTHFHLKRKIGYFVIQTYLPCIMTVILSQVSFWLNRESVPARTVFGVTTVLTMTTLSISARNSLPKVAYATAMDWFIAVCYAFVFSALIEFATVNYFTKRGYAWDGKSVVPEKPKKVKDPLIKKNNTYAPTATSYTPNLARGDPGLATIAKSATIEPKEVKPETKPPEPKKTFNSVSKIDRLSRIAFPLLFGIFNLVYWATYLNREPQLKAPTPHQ
T1 sequence (P47870 25-512 limits assumed): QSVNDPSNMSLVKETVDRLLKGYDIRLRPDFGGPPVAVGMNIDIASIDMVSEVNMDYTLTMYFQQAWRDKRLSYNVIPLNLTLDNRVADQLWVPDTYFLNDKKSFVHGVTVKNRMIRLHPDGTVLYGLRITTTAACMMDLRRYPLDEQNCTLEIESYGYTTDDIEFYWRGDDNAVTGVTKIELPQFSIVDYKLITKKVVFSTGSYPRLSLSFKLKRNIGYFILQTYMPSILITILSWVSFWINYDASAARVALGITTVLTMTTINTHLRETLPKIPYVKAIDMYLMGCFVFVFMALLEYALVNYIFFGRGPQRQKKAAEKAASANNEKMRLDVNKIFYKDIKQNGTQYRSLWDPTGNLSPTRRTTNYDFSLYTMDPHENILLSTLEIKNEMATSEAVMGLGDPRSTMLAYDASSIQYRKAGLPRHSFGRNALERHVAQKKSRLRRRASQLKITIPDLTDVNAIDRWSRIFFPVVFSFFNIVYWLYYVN
T1 sequence (P18507 40-475 partner): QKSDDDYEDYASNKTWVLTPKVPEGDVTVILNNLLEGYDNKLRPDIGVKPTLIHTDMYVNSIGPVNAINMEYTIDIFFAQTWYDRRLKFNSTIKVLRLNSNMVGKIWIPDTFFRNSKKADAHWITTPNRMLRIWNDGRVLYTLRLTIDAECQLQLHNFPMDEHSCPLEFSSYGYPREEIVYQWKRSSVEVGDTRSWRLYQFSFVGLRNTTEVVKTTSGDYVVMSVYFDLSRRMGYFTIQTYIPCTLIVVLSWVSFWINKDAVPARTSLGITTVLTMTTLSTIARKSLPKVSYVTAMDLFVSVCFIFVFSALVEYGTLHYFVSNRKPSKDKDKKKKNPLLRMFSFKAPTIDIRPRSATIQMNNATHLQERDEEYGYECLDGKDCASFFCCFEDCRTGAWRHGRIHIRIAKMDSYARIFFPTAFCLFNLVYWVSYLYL

| Structure (SMILES) | melting point | agonist character on GABAA-channels (GABAA-receptors [2]) | EC50 [1, 4] | other results |
| --- | --- | --- | --- | --- |
| Cl.Cl.NCCCC(=O)NCc1ccc(CN)cc1 | 251 to 253 °C | – | – | – |
| NCCCC(=O)NCCCCNC(=O)CCCN [4a] | – | partial, full or superagonists | – | changes in the current ([1]; x = 4): 0 pA |
| NCCCC(=O)NCCCCCCNC(=O)CCCN [4b] | – | superagonist; also recorded: partial, full or superagonists | – | EC50 fold higher than for GABA (GABAA-receptors [3]): more than 30 fold; changes in the current ([1]; x = 4): 0 pA; EC50 (GABAA-receptors [2]; 36Cl−-flux, mouse brain synaptoneurosomes, 15 s incubation, read-out: EC50 (Cl− uptake)): 0.733 mM; maximum Cl− uptake higher than that achieved by GABA (GABAA-receptors [2]; 36Cl−-flux, mouse brain synaptoneurosomes): about 50% |
| NCCCC(=O)NCCCCCCCCNC(=O)CCCN [4c] | – | partial, full or superagonists | – | induction of whole-cell currents ([1]; concentration of 15 mM): not able to induce currents |
| Cl.Cl.NCCCC(=O)NCCN [7a] | 144 to 146 °C | partial, full or superagonists | – | current amplitude ([1]; at 2.6 mM, x = 4): 10–30 pA |
| Cl.Cl.NCCCNC(=O)CCCN [7b] | 140 to 142 °C | – | 1.08 ± 0.14 mM | currents induced compared with GABA ([1]; at concentrations of 10 mM): comparable to those for GABA 30–100 µM |
| NCCCCNC(=O)CCCN [7c] | – | partial, full or superagonists | 1.75 ± 0.33 mM | – |
| Cl.Cl.NCCCCCCNC(=O)CCCN [7d] | 147 to 150 °C | – | 5.25 ± 0.56 mM | activation threshold [1]: about 100 µM; EC50 ([1]; example concentration-response curve (Figures 2B, 5C), read-out: EC50 from the concentration dependence shown in the figure): ~5 mM and 5.1 mM |
| Cl.Cl.NCCCCCCCCNC(=O)CCCN [7e] | 136 to 138 °C | – | – | current amplitude ([1]; at 5 mM, x = 3): 10–20 pA |
